Results: article PMC5074515 (PLoS ONE, 2016)
≈ marks a conversion by molar mass, not a printed value. Where two headings read alike, the source gives them in different places.

Legend:
Mtb FtsZ = Mtb FtsZ (Mycobacterium tuberculosis, UniProt P9WN95); assay: biochemical; assay type: biochemical; settings: mean ± standard deviation, at least three times per assay; NA = not active up to 100 μM; read-out: Mtb FtsZ Polymerization IC50
Mtb H37Ra (ATCC 25177) = assay: In vitro screen versus Mtb H37Ra (Alamar blue microdilution broth assay, MIC99); assay type: cell-based, M. tuberculosis; settings: Mycobacterium tuberculosis
Protocol: The initial screening set and selected other compounds were tested for their inhibitory activity against Mtb H37Ra (ATCC 25177) and MAC NJ211 strains. Screening was performed at 1.28 and 12.8 μg/mL in Middlebrook 7H9 broth supplemented with 0.2% glycerol and ADC enrichment using a colorimetric (Alamar blue) microdilution broth assay by reported methods.[15]

MAC NJ211 = assay: In vitro screen versus MAC NJ211 (Alamar blue microdilution broth assay, MIC99); assay type: cell-based; settings: lowest drug concentration that completely inhibited growth; for MIC99: read-out: MAC NJ211 MIC99
Mtb H37Rv [1] = assay: In vitro qHTS assay against Mtb H37Rv (IC90); assay type: cell-based, M. tuberculosis; settings: Mycobacterium tuberculosis, H37RV; for IC90: concentration that inhibits bacterial growth by 90%, read-out: Mtb H37Rv IC90
[2] = test system: M. tuberculosis 41 (Mtb 41) FtsZ reporter strain; assay type: cell-based
[3] = cited from earlier work
tubulin = assay: Tubulin polymerization assay; assay type: biochemical, human; settings: for effect on human tubulin: at 100 μM
Mtb H37Rv [4] = assay: TAACF Alamar blue assay against Mtb H37Rv (IC90); assay type: cell-based, M. tuberculosis; settings: Mycobacterium tuberculosis
[5] = Acute toxicity mouse model; assay type: in vivo, mice; settings: single dose of 300 mg/kg
in vitro = settings: African green monkey
[6] = Rapid PK mouse model (bioavailability); settings: mice, oral gavage, 300 mg/kg
[7] = Cytotoxicity (CC50) in Vero cells, TAACF; settings: African green monkey
Vero cells = assay: Cytotoxicity (CC50) in Vero cells, TAACF; settings: CC50 in Vero cells to IC90 against Mtb H37Rv
[8] = lowest drug concentration that completely inhibited growth, read-out: Mtb H37Ra MIC99
[9] = same MIC99 given in μM, read-out: Mtb H37Ra MIC99 (concentration in μM in parentheses)

Chain of Mtb FtsZ (P9WN95 whole entry): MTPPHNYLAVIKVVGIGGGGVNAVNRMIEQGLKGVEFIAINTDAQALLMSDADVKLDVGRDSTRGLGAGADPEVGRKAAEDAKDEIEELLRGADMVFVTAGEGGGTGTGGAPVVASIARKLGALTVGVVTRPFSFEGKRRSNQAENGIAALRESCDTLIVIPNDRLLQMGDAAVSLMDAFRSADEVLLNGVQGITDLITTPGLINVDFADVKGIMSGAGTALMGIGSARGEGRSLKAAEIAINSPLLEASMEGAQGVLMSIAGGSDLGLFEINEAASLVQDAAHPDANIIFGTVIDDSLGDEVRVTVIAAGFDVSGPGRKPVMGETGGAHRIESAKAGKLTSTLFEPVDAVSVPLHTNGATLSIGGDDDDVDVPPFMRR

Structure (SMILES)	IC50 (Mtb FtsZ)	MIC99 (Mtb H37Ra (ATCC 25177); [8])	MIC99 (Mtb H37Ra (ATCC 25177); [9])	MIC99 (MAC NJ211)	IC90 (Mtb H37Rv [1])	FtsZ ring assembly in Mtb 41 [2]	growth of Mtb 41 [2]	also measured
COc1cc(/C=C2\C=C(CC(=O)NCCN(C)C)c3cc(F)ccc32)cc(OC)c1OC [Compound 62, (E)-N-(2-(dimethylamino)ethyl)-2-(5-fluoro-1-(3,4,5-trimethoxybenzylidene)-1H-inden-3-yl)acetamide]	43.3 ± 9.8 µM	32 µg/mL	72.5 µM	> 64 µg/mL	> 100 µM	inhibit FtsZ ring assembly	significant growth inhibition	inhibition at 50 µM (Mtb H37Rv [1]; at 50 μM): 82%
CSc1ccc(/C=C2/C(C)=C(CC(=O)O)c3cc(F)ccc32)cc1 [Sulindac sulfide, reference compound]								tolerated dose in mice ([3]; over 20 days): up to 50 mg/kg
CC[n+]1c(/C=C/N(C)c2ccccc2)n(-c2ccccc2)c2ccc(-c3nc4ccccc4s3)cc21 [Compound 8, Zantrin Z2]	3.5 ± 0.3 µM							IC50 (tubulin; mean ± standard deviation, at least three times per assay, NA = not active up to 100 μM): > 100 µM; MIC (Mtb H37Ra (ATCC 25177); lowest drug concentration that completely inhibited growth): 1 µg/mL; MIC (MAC NJ211): 1 µg/mL; IC90 (Mtb H37Rv [4]; read-out: Mtb H37Rv IC90): 1.56 µg/mL; IC90 (Mtb H37Rv [4]; read-out: Mtb H37Rv IC90 (concentration in µM in parentheses)): 3.2 µM; ill effects to the mice [5]: no ill effects; CC50 (in vitro): 1.7 µg/mL; Bioavailability [6]: no bioavailability and None; CC50 [7]: 3.49 µM; Selectivity Index (CC50/IC90) (Vero cells): 1.09
CSc1ccc(/C=C2/C(C)=C(CC(=O)NCCN(C)C)c3cc(F)ccc32)cc1 [Compound 18, (Z)-N-(2-(dimethylamino)ethyl)-2-(5-fluoro-2-methyl-1-(4-(methylthio)benzylidene)-1H-inden-3-yl)acetamide]	39.4 ± 4.9 µM	8 µg/mL	19.5 µM	16 µg/mL (≈ 39 µM)	7.29 ± 0.23 µM			effect on human tubulin (tubulin): no effect; effect on human tubulin (tubulin; listed as SSA): no inhibition; tolerated dose in mice ([3]; over 17 days): up to 300 mg/kg
COc1cc(/C=C2\C=C(CC(=O)NCCN3CCCC3)c3cc(F)ccc32)cc(OC)c1OC [Compound 63, (E)-2-(5-fluoro-1-(3,4,5-trimethoxybenzylidene)-1H-inden-3-yl)-N-(2-(pyrrolidin-1-yl)ethyl)acetamide]	37.6 ± 5.7 µM	32 µg/mL	68.5 µM	> 64 µg/mL	25.5 ± 0.33 µM	inhibit FtsZ ring assembly	significant growth inhibition	bacterial cell length of Mtb 41 ([2]; 75 μM, brightfield microscopy): clear increase in bacterial cell length
